Article PMC12502323, “Discovery of small molecules with anthelmintic potential in the Medicines for Malaria Venture’s COVID and Global Health Priority Boxes using an infrared-based assay for Caenorhabditis elegans motility” (BMC Research Notes, 2025)
Like-named read-outs stand apart in the source and are kept apart here.

Legend:
[1] = system: Caenorhabditis elegans; assay: Primary screen, infrared-based (WMicroTracker ONE) C. elegans L4 motility assay at 40 µM; format: cell-based, Caenorhabditis elegans (Bristol N2); conditions: primary screen at 40 µM; for C. elegans NOTES (HIT): hit if motility < 25%
Procedure: (§1) Methods to cultivate C. elegans (Bristol N2) and synchronize growth to the L4 stage were as described. WMicroTracker ONE (Phylumtech, Argentina) detects movement by measuring the scattering of infrared light beams that are projected into each well of a microtiter plate (two 880 nm beams/well in a 96w plate).
(§2) Synchronized C. elegans L4 were detached from agar and collected in M9 buffer. Worms were centrifuged for 1 min at 1,900 g and washed in S medium to decrease the concentration of E. coli OP50 that might interfere with infrared detection. Control and assay compounds (1 µL) in DMSO (Fisher Scientific, Cat# BP231-100) were spotted into each well of a clear, flat-bottomed 96-well polystyrene plate (Fisherbrand, Cat# FB012931). DMSO (1%) was used as the negative control. Approximately 70 L4 in 100 µL S medium were added per well. First pass screens employed 40 µM compound, and motility was measured every 20 min for 24 h in the WMicroTracker ONE reader in which the temperature was 25 ± 1 °C. Motility was normalized relative to the DMSO controls. Hits were defined as compounds that decreased motility to ≤ 25% of that in DMSO control worms.

[2] = HEK293 cytotoxicity assay (resazurin); format: cell-based, Human; conditions: human
Procedure: Potent compounds were also evaluated for cytotoxicity against HEK293 cells. Cells were cultured at 37 °C and 5% in Dulbecco’s Modified Eagle Medium (DMEM; Gibco, Cat#: 11965-092) containing 10% heat-inactivated fetal bovine serum (FBS; Omega Scientific Inc., Cat#: FB02) and 1% penicillin-streptomycin (ThermoFisher Scientific, Cat#: 15140122), and then sub-cultured when 60–80% confluent. Cells were detached with 0.05% trypsin/EDTA (ThermoFisher Scientific, Cat#: 25300054) and centrifuged for 5 min at 1,900 g.
Screens were performed over 11 compound concentrations (0.00007–40 µM) that had been prepared in DMSO. Aliquots (1 µL) were spotted into each well of a clear-bottomed, 96-well, polystyrene assay plate (Fisher Scientific, Cat#: FB012931). Approximately 20,000 HEK293 cells in 99 µL of the above supplemented DMEM were then added to each well. After 46 h at 37 °C and 5% CO2, 20 µL 0.5 mM resazurin (ThermoFisher Scientific, Cat#: B21187.03) were added and the incubation continued for 2 h at 37 °C [27]. Fluorescence was measured in a 2104 EnVision Multilabel Plate Reader (PerkinElmer) at 560 and 590 nm excitation and emission wavelengths, respectively. Raw data were exported from the EnVision Workstation software (version 1.13.3009.1401; PerkinElmer) into Prism GraphPad, and the half-maximal cytotoxic concentration (CC50) values were calculated using a non-linear regression curve.

[3] = system: Caenorhabditis elegans; assay: Concentration response C. elegans L4 motility assay (WMicroTracker ONE), EC50; format: cell-based, Caenorhabditis elegans (Bristol N2); conditions: Caenorhabditis elegans, read-out: EC50 (motility)
Procedure: as §1, §2
For potent compounds, concentration response assays (nine concentrations: 0.005 µM to 40 or 100 µM) were conducted to measure the half-maximal effective concentration (EC50). Compounds were serially diluted in DMSO using 96-well, v-bottomed polypropylene dilution plates (ThermoFisher Scientific, Cat#: 249944) and 1 µL aliquots spotted into each well of the assay plates. Motility was measured as described above. Prism GraphPad, Version 8.0 (GraphPad Software, San Diego, CA) was used to calculate EC50 values using a non-linear sigmoidal four parameter logistic curve.

[4] = C. elegans L4, WMicroTracker ONE
[5] = HEK293 cell viability after 48 h, read-out: CC50

Row | Molecule | C. elegans Mean motility vs. DMSO control (%) ([1]; C. elegans L4) | C. elegans NOTES (HIT) [1] | other results
1 | CCCOc1ccc(C(F)(F)F)cc1NC(=O)c1nc2nccc(C)n2n1 [MMV1262756] | 25.74% | – | –
2 | O=C(Nc1ncccc1O)c1ccc(Cn2cccn2)cc1 [MMV1266067] | 85.15% | – | –
3 | Cn1ccnc1SCC(=O)Nc1ccc(C(=O)Nc2ncccc2O)cc1 [MMV1267536] | 64.36% | – | –
4 | O=C(Nc1ncccc1O)c1ccc(S(=O)(=O)NCCc2cccs2)cc1 [MMV1435700] | 75.25% | – | –
5 | C[C@H](Cn1cnc2c(N)ncnc21)OCP(=O)(O)O [MMV1580478] | 95.45% | – | –
6 | CC(C)Oc1ccc(-c2nc(-c3cccc4c3CC[C@@H]4NCCO)no2)cc1C#N [MMV1580492] | 83.52% | – | –
7 | CC(C)(C)NC(=O)N[C@H](C(=O)N1C[C@H]2[C@@H]([C@H]1C(=O)NC(CC1CCC1)C(=O)C(N)=O)C2(C)C)C(C)(C)C (some centres unmarked) [MMV1580497] | 86.33% | – | –
8 | C[C@@H](c1nc(-c2ccc(C#N)cc2)cs1)[C@](O)(Cn1cncn1)c1ccc(F)cc1F [MMV1634362] | 84.55% | – | –
9 | CCC1=C(c2ccc(C)cc2)S(=O)(=O)N=C1N1CCC(C(=O)NCCN2CCCC[C@@H]2C)CC1 [MMV1704710] | – | – | C. elegans Mean motility vs. DMSO control (%) [1, 4]: 104.04%
10 | Oc1ccccc1CCN[C@H]1CCc2ccc(F)cc21 [MMV1726212] | 87.88% | – | –
11 | CCn1cnc2c(N3CCC[C@H](c4ccncc4)C3)ncnc21 [MMV1752548] | 78.79% | – | –
12 | O=C(Nc1cnc2ccccc2c1)c1ccccc1C(=O)c1ccc(F)cc1 [MMV1760745] | 93.6% | – | –
13 | c1ccc(-c2ccnc(C3CCN(CC45CNCC4C5)CC3)n2)cc1 (centres unmarked) [MMV1797658] | 81.14% | – | –
14 | O=C(NC1CCN(CCOc2ccc(Cl)cc2)CC1)c1c[nH]c2ccncc2c1=O [MMV1798946] | – | – | C. elegans Mean motility vs. DMSO control (%) [1, 4]: 99.33%
15 | CC[C@@H](C(=O)[C@@H](C)[C@@H](O)[C@H](C)[C@@H]1O[C@@H]([C@@H](CC)C(=O)O)CC[C@@H]1C)[C@H]1O[C@]2(C=C[C@@H](O)[C@]3(CC[C@@](C)([C@H]4CC[C@](O)(CC)[C@H](C)O4)O3)O2)[C@H](C)C[C@@H]1C [MMV1804312] | – | – | C. elegans Mean motility vs. DMSO control (%) [1, 4]: 96.95%
16 | CCOCn1c(-c2ccc(Cl)cc2)c(C#N)c(Br)c1C(F)(F)F [chlorfenapyr] | 0.26% | HIT | CC50 at 48 h [2, 5]: 20.9 ± 7.34 µM; EC50 ([3]; C. elegans L4, after 12 h): 1.65 ± 0.449 µM
17 | CO[C@H]1C[C@H](O[C@H]2[C@H](C)O[C@@H](O[C@@H]3/C(C)=C/C[C@@H]4C[C@@H](C[C@]5(C=C[C@H](C)[C@@H](C6CCCCC6)O5)O4)OC(=O)[C@@H]4C=C(C)[C@@H](O)[C@H]5OC/C(=C\C=C\[C@@H]3C)[C@]54O)C[C@@H]2OC)O[C@@H](C)[C@@H]1O [doramectin, reference compound] | 6.74% | HIT | –
18 | CO/N=C1\C[C@]2(C[C@@H]3C[C@@H](C/C=C(\C)C[C@@H](C)/C=C/C=C4\CO[C@@H]5[C@H](O)C(C)=C[C@@H](C(=O)O3)[C@]45O)O2)O[C@H](/C(C)=C/C(C)C)[C@H]1C [moxidectin, reference compound] | 0.28% | HIT | CC50 at 48 h [2]: 13.3 ± 9.47 µM; EC50 ([3]; 1 h): 0.128 ± 0.045 µM
19 | CO[C@H]1C[C@H](O[C@@H]2/C(C)=C/C[C@@H]3C[C@@H](C[C@]4(CC[C@H](C)[C@@H](C5CCCCC5)O4)O3)OC(=O)[C@@H]3C=C(C)/C(=N/O)[C@H]4OC/C(=C\C=C\[C@@H]2C)[C@]43O)O[C@@H](C)[C@@H]1O [selamectin, reference compound] | 2.31% | HIT | CC50 at 48 h [2, 5]: 9.88 ± 4.26 µM; EC50 ([3]; C. elegans L4, after 3 h): 0.722 ± 0.555 µM
20 | abamectin [reference compound] | 3.6% | HIT | –
21 | eprinomectin [reference compound] | 13.19% | HIT | –
22 | milbemectin [reference compound] | 1.69% | HIT | –
